# Data reported in patent US20050136488A1, “Cellular membrane protein assay” (priority 2003, published 2005).
# Where two headings read alike, the source gives them in different places.
# How the values were obtained:
# [1] = tested on: GLUT4-PL in CHO/pGLUT4-PL.1 cells; conditions: 30 min, serum-containing media, thrombin 20 units/ml
# Protocol: In this experiment, CHO/pGLUT4-PL.1 cells were treated for 30 min with 0, 0.1, 1, and 10 μM insulin in serum-containing media. The liquid above the cells was then replaced with buffer containing thrombin at 20 units/ml and processed for the intact-cell EFC assay.
# 1) Seed cells into individual wells at a density of 10,000 cells in 100 μl media. For transient transfectants, replace the media above cells with fresh media one day post-transfection. Perform the intact-cell EFC assay two days after seeding the cells. To assay GLUT4-PL at the cell surface under basal growth conditions (serum-containing media, no exogenous insulin), proceed to step 3.
# 2) For insulin induction, add 20 μl/well of insulin diluted in media to 6× system concentration (e.g., add 20 μl of 6 μM insulin to the 100 μl liquid above cells to achieve an insulin system concentration of 1 μM). Return plate to incubator for 30 min. Starving cells of serum 2-to-4 hours prior to adding insulin diluted in serum-free media may achieve a larger insulin-response window.
# 3) Remove the media above the cells by aspiration. Add 50 μl/well thrombin solution (20 units/ml thrombin; 1×PBS; 0.1 mg/ml BSA; 10 mM each KF and NaAzide (NaN3)). Return plate to incubator for 1 hr. […]
# 5) Add 30 μl/well CL Substrate. […] Readings are taken at periodic intervals from 15 min to 1 hr on a luminescence plate reader.
# HeLa/IκB-PL cells = experiment: cell integrity control, intact-cell EFC assay on cells expressing cytoplasmic reporter IκB-PL; format: cell-based; conditions: series of increasing thrombin concentrations
# Protocol: CHO/pGLUT4-PL.1 and HeLa/IκB-PL cells were assayed in parallel with a series of increasing thrombin concentrations (FIG. 6). As had been observed above, thrombin treatment of CHO/pGLUT4-PL.1 cells led to a dose-dependent increase in EFC activity.
# [2] = molecular target: T1, GLUT4-PL in CHO/pGLUT4-PL.1 cells (Homo sapiens, UniProt P14672, INS67[…]); experiment: intact-cell EFC assay, thrombin release of ProLabel from GLUT4-PL; format: cell-based; conditions: thrombin 60 units/ml, intact CHO cells expressing pGLUT4-PL.1
# T1 construct: expressed in transfected cells; host or cells: CHO cells transfected with plasmid pGLUT4-PL.1
# T1 sequence (P14672 with tags, fused parts or gaps INS67[withheld]): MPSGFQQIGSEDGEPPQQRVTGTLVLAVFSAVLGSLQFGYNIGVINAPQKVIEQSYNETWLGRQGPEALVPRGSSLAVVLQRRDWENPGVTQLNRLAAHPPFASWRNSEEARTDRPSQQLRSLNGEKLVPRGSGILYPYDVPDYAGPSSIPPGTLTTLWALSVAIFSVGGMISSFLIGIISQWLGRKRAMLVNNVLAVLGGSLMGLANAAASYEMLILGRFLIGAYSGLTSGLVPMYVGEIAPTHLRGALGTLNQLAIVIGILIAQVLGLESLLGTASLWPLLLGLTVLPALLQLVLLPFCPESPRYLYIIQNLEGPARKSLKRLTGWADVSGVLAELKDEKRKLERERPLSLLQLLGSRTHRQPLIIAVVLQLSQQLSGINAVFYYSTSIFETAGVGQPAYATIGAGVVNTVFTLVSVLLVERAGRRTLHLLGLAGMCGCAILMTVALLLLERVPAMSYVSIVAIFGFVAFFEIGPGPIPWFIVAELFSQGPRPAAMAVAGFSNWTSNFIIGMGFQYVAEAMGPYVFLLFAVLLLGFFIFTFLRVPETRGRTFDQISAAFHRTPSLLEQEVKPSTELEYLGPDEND
# Protocol: Detection of GLUT4-PL after protease cleavage. Central to the concept of using EFC to monitor GLUT4-PL at the cell surface is the proteolytic release of the internal ProLabel tag from the protein's first exofacial loop. Initial studies were therefore directed at developing and characterizing an intact-cell EFC protocol using thrombin protease. All of the experiments described below were carried out in 96-well assay plates. To test whether thrombin treatment could enhance EFC signal, intact cells expressing pGLUT4-PL.1 were treated with 50 μl buffer alone or buffer containing thrombin at increasing concentrations. Eighty μl of a solution containing EA and the protease inhibitor AEBSF (7.5 mM final concentration) were added subsequently, followed by 30 μl of chemiluminescent substrate. Thrombin treatment led to a dose-dependent enhancement of EFC activity, with 60 units/ml enhancing EFC activity 4.4-fold over untreated cells (FIG. 4). To test whether thrombin proteolytic activity per se, and not a non-specific component of the thrombin formulation was responsible for the increased EFC signal, a control experiment was performed by inactivating thrombin with AEBSF prior to its addition to cells.
# [3] = molecular target: GLUT4-ProLabel fusion protein encoded by plasmid pGLUT4-PL.1 (human); experiment: cell-based or functional assay
# Sequence of GLUT4-ProLabel fusion protein encoded by plasmid pGLUT4-PL.1 (human) (chain, as listed by the source limits assumed): as the sequence (P14672 with tags, fused parts or gaps INS67[withheld]) above
substance,measurement,setting,value
insulin,increase in EFC activity relative to the no-insulin control,[1]; 1 μM insulin,15%
same,increase in EFC activity relative to the no-insulin control,[1]; 10 μM insulin,40%
thrombin,dose-dependent increase in EFC activity (cell integrity),HeLa/IκB-PL cells,no such increase was observed
same,enhancement of EFC activity over untreated cells,[2],4.4 fold
thrombin protease (enzyme),"EFC activity (enzyme fragment complementation, chemiluminescence) of intact CHO/pGLUT4-PL.1 cells",[3],4.4 fold
